Experimental findings from PubChem BioAssay (NCI) are described below.

The structures appear in SMILES notation.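 How tested: cells in 96-well plates exposed to compound for 48 hours at five concentrations. The concentration for 50% growth inhibition is given as GI50. At the TGI there is no net growth.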 Bounds are passed on as bounds.

Among the test systems are NCI-H460 lung; SN12C renal; M14 melanoma; 786-0 renal; HOP-62 NSCLC; SF-295 CNS; MCF7 breast.
What all share (assay): inhibition of tumour cell growth, NCI panel, 48 h

As for `COc1ccc(N=Cc2c(O)ccc3c2oc2cc(Cl)c(O)c(Cl)c23)cc1`, the GI50 is 12.7 µM in the experiment on NCI-H460 lung; 19.3 µM with SN12C renal; 20.9 µM in the experiment with M14 melanoma; 19.2 µM in the experiment on 786-0 renal; 14.3 µM in the experiment with HOP-62 NSCLC; 3.39 µM in the experiment on SF-295 CNS. Also, the GI50 in the experiment on MCF7 breast was 7.7 µM. For the same molecule, the TGI in the experiment with NCI-H460 lung is 33.9 µM; in the experiment on SN12C renal it was 63.6 µM; in the experiment on M14 melanoma, 61.2 µM; in the experiment with 786-0 renal, 52 µM; in the experiment on HOP-62 NSCLC, 33.5 µM; in the experiment with SF-295 CNS it was 17.8 µM. The same molecule displayed a TGI in the experiment with MCF7 breast of 44.1 µM.
As to `C=CCC(N[C@@H](CO)c1ccccc1)c1cn(Cc2ccccc2Cl)c(=O)n(Cc2ccccc2Cl)c1=O` (stereo partly specified), the GI50 with NCI-H460 lung, in the experiment with SN12C renal, in the experiment with M14 melanoma, with 786-0 renal, with HOP-62 NSCLC and in the experiment with SF-295 CNS was more than 100 µM in each case. In the experiment with MCF7 breast, the GI50 is more than 100 µM. Further, the TGI in the experiment with NCI-H460 lung, in the experiment on SN12C renal, in the experiment with M14 melanoma, in the experiment with 786-0 renal, in the experiment on HOP-62 NSCLC and in the experiment with SF-295 CNS was more than 100 µM each time. The same molecule displayed a TGI in the experiment with MCF7 breast of more than 100 µM.
For the molecule `Nc1ccccc1NC(=O)c1ccc(CNc2nccc(-c3cccnc3)n2)cc1`, the GI50 in the experiment on NCI-H460 lung was 1.15 µM; in the experiment on SN12C renal it was 2.34 µM; in the experiment on M14 melanoma, 1.03 µM; with 786-0 renal, 2.15 µM; with HOP-62 NSCLC, 1.34 µM; in the experiment with SF-295 CNS it was 0.722 µM. Also, the GI50 in the experiment with MCF7 breast is 0.716 µM. Also, the TGI was 97 µM in the experiment with NCI-H460 lung; more than 72.8 µM in the experiment on SN12C renal; 4.18 µM with M14 melanoma; more than 47.9 µM with 786-0 renal; more than 51.8 µM in the experiment with HOP-62 NSCLC; more than 100 µM with SF-295 CNS. In the experiment on MCF7 breast, this molecule yielded a TGI of more than 43.3 µM.
For the molecule `CCOC(=O)[C@@H](C)C[C@H](Cc1ccccc1)NC(=O)c1nc([C@@H](C[C@H](C(C)C)N(C)C(=O)[C@@H](NC(=O)[C@H]2CCCCN2C)C(C)C)OC(C)=O)sc1CCOCc1ccccc1`, the GI50 in the experiment with NCI-H460 lung is 0.0425 µM; with SN12C renal it was 0.0706 µM; in the experiment with M14 melanoma it was 0.0689 µM; in the experiment with 786-0 renal, 0.08 µM; in the experiment with HOP-62 NSCLC, 0.226 µM; in the experiment on SF-295 CNS, 0.0499 µM. In addition, the GI50 in the experiment on MCF7 breast was 0.0404 µM. The TGI in the experiment on NCI-H460 lung amounted to 1.4 µM; with SN12C renal it was 1.55 µM; with M14 melanoma, 0.727 µM; in the experiment on 786-0 renal, 1.59 µM; with HOP-62 NSCLC, 2.91 µM; in the experiment with SF-295 CNS it was 1.36 µM. In the experiment with MCF7 breast, the TGI amounted to 4.33 µM.
As to `O=C1CC[C@H](N2C(=O)c3cccc4c(Cc5ccc(CN6CCOCC6)cc5)ccc2c34)C(=O)N1`, the GI50 in the experiment on NCI-H460 lung was 35.2 µM; in the experiment on SN12C renal it was 63.4 µM; in the experiment with M14 melanoma it was 62 µM; with 786-0 renal, more than 100 µM; in the experiment on HOP-62 NSCLC it was 52.3 µM; in the experiment with SF-295 CNS it was 19.3 µM. In the experiment on MCF7 breast, the GI50 was 23.7 µM. The TGI in the experiment with NCI-H460 lung, with SN12C renal, in the experiment with M14 melanoma, in the experiment on 786-0 renal, in the experiment on HOP-62 NSCLC and in the experiment with SF-295 CNS was more than 100 µM in each case. The molecule further registered a TGI with MCF7 breast of more than 100 µM.
As to `COc1cccc(CCC2CCCN(c3cc(C)nc(N)n3)C2)c1` (stereo unspecified), the GI50 in the experiment on NCI-H460 lung was 0.38 µM; in the experiment with SN12C renal, 0.635 µM; with M14 melanoma it was 0.302 µM; in the experiment with 786-0 renal it was 0.526 µM; in the experiment with HOP-62 NSCLC, 0.434 µM; with SF-295 CNS, 0.362 µM. Moreover, the GI50 in the experiment on MCF7 breast is 0.292 µM. Besides, the TGI is 11.6 µM in the experiment on NCI-H460 lung; 11.5 µM with SN12C renal; 2.6 µM in the experiment on M14 melanoma; 11.9 µM with 786-0 renal; 6.43 µM in the experiment with HOP-62 NSCLC; 10.6 µM with SF-295 CNS. The TGI in the experiment with MCF7 breast amounted to 11.9 µM.
As to `Cn1cc(C2=C(c3ccccc3[N+](=O)[O-])C(=O)NC2=O)c2ccccc21`, the GI50 was 4.85 µM in the experiment with NCI-H460 lung; 4.98 µM with SN12C renal; 6.32 µM with M14 melanoma; 3.2 µM in the experiment with 786-0 renal; 5.35 µM with HOP-62 NSCLC; 1.44 µM with SF-295 CNS. The GI50 in the experiment on MCF7 breast was 4.05 µM. The TGI in the experiment on NCI-H460 lung is more than 25 µM; in the experiment with SN12C renal it was more than 25 µM; in the experiment with M14 melanoma, more than 20.9 µM; in the experiment on 786-0 renal, more than 25 µM; with HOP-62 NSCLC, more than 23.3 µM; in the experiment on SF-295 CNS, more than 25 µM. The molecule also gave a TGI with MCF7 breast of more than 25 µM.
Take `O=c1cc(-c2ccccc2)oc2ccc(OC/C(=N/O)c3ccccc3)cc12`: the GI50 with NCI-H460 lung was 1.97 µM; in the experiment with SN12C renal it was 2.79 µM; with M14 melanoma, more than 50 µM; with 786-0 renal, 8.92 µM; in the experiment on HOP-62 NSCLC, 9.62 µM; with SF-295 CNS, 1.25 µM. The TGI is 16.9 µM with NCI-H460 lung; 33.9 µM in the experiment with SN12C renal; more than 50 µM in the experiment with M14 melanoma; more than 50 µM with 786-0 renal; more than 50 µM in the experiment on HOP-62 NSCLC; 3.34 µM in the experiment with SF-295 CNS.
On to `NC1=CC(=O)c2cccnc2C1=O`, for which the GI50 in the experiment with NCI-H460 lung is 1.23 µM; in the experiment on SN12C renal it was 1.49 µM; in the experiment on M14 melanoma, 1.7 µM; in the experiment on 786-0 renal, 1.78 µM; in the experiment on HOP-62 NSCLC, 1.32 µM; with SF-295 CNS, 1.62 µM. For the same molecule, the TGI in the experiment on NCI-H460 lung worked out at 3.25 µM; with SN12C renal it was 2.94 µM; with M14 melanoma, 3.24 µM; with 786-0 renal, 3.75 µM; with HOP-62 NSCLC, 2.77 µM; with SF-295 CNS, 3.1 µM.
On to `CC[C@H](NC(=O)[C@H]1CCCCN1C)C(=O)N(C)[C@H](C[C@@H](OC(C)=O)c1nc(C(=O)N[C@@H](Cc2ccccc2)C[C@H](C)C(=O)O)cs1)C(C)C`, for which the GI50 with NCI-H460 lung is 0.00436 µM; with SN12C renal it was 0.00993 µM; in the experiment on M14 melanoma it was 0.00244 µM; with 786-0 renal it was 0.00868 µM; in the experiment on HOP-62 NSCLC, 0.00673 µM; with SF-295 CNS it was 0.00456 µM. Further, in the experiment with MCF7 breast, the GI50 is less than 0.00143 µM. Moreover, the TGI in the experiment with NCI-H460 lung was more than 14.3 µM; with SN12C renal, more than 14.3 µM; in the experiment on M14 melanoma, 0.00969 µM; in the experiment with 786-0 renal it was more than 14.3 µM; with HOP-62 NSCLC, more than 14.3 µM; in the experiment with SF-295 CNS, more than 6.44 µM. The molecule further gave a TGI with MCF7 breast of more than 14.3 µM.
Turning to `NCCCNc1nc2ccccc2c2c(=O)c3cc(F)cc(F)c3sc12`, the GI50 is 1.58 µM in the experiment on NCI-H460 lung; 1.68 µM with SN12C renal; 1.79 µM in the experiment on M14 melanoma; 1.49 µM in the experiment with 786-0 renal; 1.99 µM in the experiment with SF-295 CNS. The TGI turned out to be 3.14 µM in the experiment on NCI-H460 lung; 3.27 µM in the experiment on SN12C renal; 3.3 µM in the experiment with M14 melanoma; 3.12 µM in the experiment with 786-0 renal; 4.06 µM in the experiment with SF-295 CNS.
Regarding `COC1=CC(c2ccc[nH]2)=N/C1=C\c1[nH]c(C)c(CC(=O)OCc2ccccc2)c1CCC(=O)OCc1ccccc1`, the GI50 with NCI-H460 lung is 0.399 µM; in the experiment on M14 melanoma, 0.223 µM; in the experiment with 786-0 renal, 0.376 µM; in the experiment with HOP-62 NSCLC, 0.365 µM; in the experiment with SF-295 CNS, 0.305 µM; with MCF7 breast, 0.372 µM. Further, the TGI in the experiment on NCI-H460 lung worked out at 13.1 µM; with M14 melanoma, 0.573 µM; in the experiment with 786-0 renal, 1.53 µM; with HOP-62 NSCLC it was 2.39 µM; in the experiment with SF-295 CNS, 1.3 µM; in the experiment on MCF7 breast, 5.5 µM.
For the molecule `CC[C@H]1CN2CCc3cc(OC)c(OC)cc3C2C[C@@H]1CC1NCCc2cc(OC)c(OC)cc21` (stereo partly specified), the TGI in the experiment with NCI-H460 lung amounted to 0.112 µM; in the experiment on SN12C renal it was 0.289 µM; in the experiment with M14 melanoma it was 0.0487 µM; in the experiment on 786-0 renal it was 0.128 µM; with HOP-62 NSCLC it was 0.0815 µM; in the experiment with MCF7 breast it was 1.22 µM. The GI50 in the experiment with MCF7 breast is 0.0146 µM.
Consider `O=C1c2[nH]cc(CNC3CN4CCC3CC4)c2C(=O)c2c1c(O)c1ccccc1c2O` (stereo unspecified), for which the GI50 in the experiment with SN12C renal is 1.06 µM; in the experiment with M14 melanoma it was 3.11 µM; in the experiment with 786-0 renal, 2.53 µM; in the experiment with HOP-62 NSCLC, 1.11 µM; in the experiment on SF-295 CNS, 2.05 µM. Besides, the TGI is 15.5 µM with SN12C renal; 11.7 µM with M14 melanoma; 8.65 µM in the experiment with 786-0 renal; 2.43 µM in the experiment with HOP-62 NSCLC; 3.62 µM with SF-295 CNS.
Turning to `O=C1/C(=C\c2ccc(F)cc2)CN(C(=O)c2ccccc2)C/C1=C\c1ccc(F)cc1`, the GI50 in the experiment with SN12C renal is 3.02 µM; with M14 melanoma, 2.05 µM; in the experiment with 786-0 renal it was 1.83 µM; with HOP-62 NSCLC, 3.07 µM; in the experiment on MCF7 breast it was 0.841 µM. For the same molecule, the TGI in the experiment with SN12C renal was determined as 12.1 µM; with M14 melanoma, 4.65 µM; in the experiment with 786-0 renal it was 4.25 µM; in the experiment with HOP-62 NSCLC, 8.5 µM; with MCF7 breast, 4.31 µM.
On to `OC(c1cc(-c2cccc(Cl)c2)nc2ccccc12)C1CCCCN1` (stereo unspecified), for which the GI50 in the experiment on SN12C renal is 2.17 µM; in the experiment with M14 melanoma it was 1.91 µM; in the experiment on 786-0 renal it was 1.84 µM; with HOP-62 NSCLC, 1.78 µM; in the experiment on SF-295 CNS, 1.59 µM. Besides, the TGI was found to be 5.19 µM with SN12C renal; 3.74 µM in the experiment on M14 melanoma; 3.47 µM in the experiment on 786-0 renal; 3.32 µM in the experiment on HOP-62 NSCLC; 3.22 µM in the experiment on SF-295 CNS.
Regarding `C=C1CC2CCCC12C=O` (stereo unspecified), the TGI in the experiment with SN12C renal, with M14 melanoma, in the experiment with 786-0 renal, with HOP-62 NSCLC, with SF-295 CNS and in the experiment with MCF7 breast was more than 10 µM in each case.
